These are literature values, as cited in patent US20220160890A1, “SURVIVAL-TARGETING CHIMERIC (SURTAC) MOLECULES” (Locki Therapeutics Limited, priority 2019, published 2022).

The target of data set [1] is T1, p53 (Homo sapiens, UniProt P04637).
T1 construct: various tumor cells lines expressing wild-type p53

For data set [2], the system named is tumor cells lines expressing wild-type p53. To be noted: tumor cell lines expressing wild-type p53.
The target in data set [3] is T1, p53. The source holds these as a separate data set.
The target in a further data set is p53-HDM-2 interaction (Homo sapiens, UniProt P04637). To be noted: in vitro and in vivo.
p53-HDM-2 interaction, sequence (P04637 whole entry): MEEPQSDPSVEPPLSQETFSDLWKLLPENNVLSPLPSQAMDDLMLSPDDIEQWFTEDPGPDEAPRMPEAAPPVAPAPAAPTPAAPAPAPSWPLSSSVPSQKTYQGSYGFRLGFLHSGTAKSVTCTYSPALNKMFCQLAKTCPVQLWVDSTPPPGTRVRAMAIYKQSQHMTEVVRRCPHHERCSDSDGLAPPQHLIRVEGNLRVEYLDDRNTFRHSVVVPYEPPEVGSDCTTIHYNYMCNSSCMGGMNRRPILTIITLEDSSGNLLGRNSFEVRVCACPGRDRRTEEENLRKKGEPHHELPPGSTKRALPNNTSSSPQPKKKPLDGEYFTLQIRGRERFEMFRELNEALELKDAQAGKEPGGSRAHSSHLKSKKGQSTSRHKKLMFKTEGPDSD

T1 sequence (P04637 whole entry): as above

As to `OCc1ccc(-c2ccc(-c3ccc(CO)s3)o2)s1` [RITA, 2,5-bis(5-hydroxymethyl-2-thienyl)furan], the “binding to p53” value at p53 [1] is recorded as “binds to p53”. Moreover, in data set [2], the apoptosis result is “massive apoptosis” and the “expression of p53 target genes” value was “induced expression of p53 target genes”. Further, the “accumulation of p53 in tumor cells” value at p53 [3] is listed as “induces its accumulation in tumor cells”. Moreover, at p53-HDM-2 interaction, the p53-HDM-2 interaction entry is “prevents p53-HDM-2 interaction”.
